According to ChEMBL document CHEMBL4251595, “Green approach for the synthesis of thiophenyl pyrazoles and isoxazoles by adopting 1,3-dipolar cycloaddition methodology and their antimicrobial activity” (2018):
Calls of active or inactive are those of the source. The rule behind the calls is not given here.

What was measured:
Assay type in all cases: functional
[1] = test system: Aspergillus niger; assay: Antifungal activity against Aspergillus niger assessed as zone of inhibition at 100 ug/well after 48 hrs by agar well diffusion method; conditions: for zone of inhibition at 100 µg/disc: read-out: DIZ
[2] = test system: Pseudomonas aeruginosa; assay: Antimicrobial activity against Pseudomonas aeruginosa assessed as zone of inhibition at 75 ug/well after 24 hrs by agar well diffusion method; conditions: for zone of inhibition at 75 µg/disc: read-out: DIZ
[3] = test system: Bacillus subtilis; assay: Antimicrobial activity against Bacillus subtilis assessed as zone of inhibition at 100 ug/well after 24 hrs by agar well diffusion method; conditions: for zone of inhibition at 100 µg/disc: read-out: DIZ
[4] = test system: Klebsiella pneumoniae; assay: Antimicrobial activity against Klebsiella pneumoniae assessed as zone of inhibition at 100 ug/well after 24 hrs by agar well diffusion method; conditions: for zone of inhibition at 100 µg/disc: read-out: DIZ
[5] = test system: Penicillium chrysogenum; assay: Antifungal activity against Penicillium chrysogenum assessed as zone of inhibition at 75 ug/well after 48 hrs by agar well diffusion method; conditions: for zone of inhibition at 75 µg/disc: read-out: DIZ
[6] = test system: Penicillium chrysogenum; assay: Antifungal activity against Penicillium chrysogenum assessed as zone of inhibition at 100 ug/well after 48 hrs by agar well diffusion method; conditions: for zone of inhibition at 100 µg/disc: read-out: DIZ
[7] = test system: Bacillus subtilis; assay: Antimicrobial activity against Bacillus subtilis assessed as zone of inhibition at 75 ug/well after 24 hrs by agar well diffusion method; conditions: for zone of inhibition at 75 µg/disc: read-out: DIZ
[8] = test system: Klebsiella pneumoniae; assay: Antimicrobial activity against Klebsiella pneumoniae assessed as zone of inhibition at 50 ug/well after 24 hrs by agar well diffusion method; conditions: for zone of inhibition at 50 µg/disc: read-out: DIZ
[9] = test system: Penicillium chrysogenum; assay: Antifungal activity against Penicillium chrysogenum assessed as zone of inhibition at 50 ug/well after 48 hrs by agar well diffusion method
[10] = test system: Pseudomonas aeruginosa; assay: Antimicrobial activity against Pseudomonas aeruginosa assessed as zone of inhibition at 100 ug/well after 24 hrs by agar well diffusion method; conditions: for zone of inhibition at 100 µg/disc: read-out: DIZ
[11] = test system: Klebsiella pneumoniae; assay: Antimicrobial activity against Klebsiella pneumoniae assessed as zone of inhibition at 75 ug/well after 24 hrs by agar well diffusion method; conditions: for zone of inhibition at 75 µg/disc: read-out: DIZ
[12] = test system: Aspergillus niger; assay: Antifungal activity against Aspergillus niger assessed as zone of inhibition at 50 ug/well after 48 hrs by agar well diffusion method; conditions: for zone of inhibition at 50 µg/disc: read-out: DIZ
[13] = test system: Staphylococcus aureus; assay: Antimicrobial activity against Staphylococcus aureus assessed as zone of inhibition at 75 ug/well after 24 hrs by agar well diffusion method; conditions: for zone of inhibition at 75 µg/disc: read-out: DIZ
[14] = test system: Bacillus subtilis; assay: Antimicrobial activity against Bacillus subtilis assessed as zone of inhibition at 50 ug/well after 24 hrs by agar well diffusion method; conditions: for zone of inhibition at 50 µg/disc: read-out: DIZ
[15] = test system: Staphylococcus aureus; assay: Antimicrobial activity against Staphylococcus aureus assessed as zone of inhibition at 50 ug/well after 24 hrs by agar well diffusion method; conditions: for zone of inhibition at 50 µg/disc: read-out: DIZ
[16] = test system: Staphylococcus aureus; assay: Antimicrobial activity against Staphylococcus aureus assessed as zone of inhibition at 100 ug/well after 24 hrs by agar well diffusion method; conditions: for zone of inhibition at 100 µg/disc: read-out: DIZ
[17] = test system: Aspergillus niger; assay: Antifungal activity against Aspergillus niger assessed as zone of inhibition at 75 ug/well after 48 hrs by agar well diffusion method; conditions: for zone of inhibition at 75 µg/disc: read-out: DIZ
[18] = test system: Pseudomonas aeruginosa; assay: Antimicrobial activity against Pseudomonas aeruginosa assessed as zone of inhibition at 50 ug/well after 24 hrs by agar well diffusion method; conditions: for zone of inhibition at 50 µg/disc: read-out: DIZ

Structure (SMILES)	diameter of the inhibition zone (DIZ) [1]	diameter of the inhibition zone (DIZ) [2]	diameter of the inhibition zone (DIZ) [5]	diameter of the inhibition zone (DIZ) [9]	diameter of the inhibition zone (DIZ) [10]	diameter of the inhibition zone (DIZ) [12]	diameter of the inhibition zone (DIZ) [13]	diameter of the inhibition zone (DIZ) [15]	diameter of the inhibition zone (DIZ) [18]	zone of inhibition at 100 µg/disc [3]	zone of inhibition at 100 µg/disc [4]	zone of inhibition at 75 µg/disc [7]	zone of inhibition at 50 µg/disc [14]	zone of inhibition at 100 µg/disc [1]	zone of inhibition at 75 µg/disc [5]	zone of inhibition at 100 µg/disc [6]	zone of inhibition at 50 µg/disc [8]	zone of inhibition at 75 µg/disc [11]	zone of inhibition at 100 µg/disc [16]	zone of inhibition at 75 µg/disc [17]	further results
Cc1ccc(C2C(S(=O)(=O)NC(=O)c3ccc(Cl)s3)C(c3ccccc3)=NN2c2ccccc2)cc1 (stereo not given)	inactive	inactive	inactive	inactive	inactive	inactive	inactive	inactive	inactive												diameter of the inhibition zone (DIZ) [3]: inactive; diameter of the inhibition zone (DIZ) [4]: inactive; diameter of the inhibition zone (DIZ) [6]: inactive; diameter of the inhibition zone (DIZ) [7]: inactive; diameter of the inhibition zone (DIZ) [8]: inactive; diameter of the inhibition zone (DIZ) [11]: inactive; diameter of the inhibition zone (DIZ) [14]: inactive; diameter of the inhibition zone (DIZ) [16]: inactive; diameter of the inhibition zone (DIZ) [17]: inactive
O=C(NS(=O)(=O)C1C(c2ccccc2)=NOC1c1ccccc1)c1cccs1 (stereo not given)	inactive	inactive	inactive	inactive	inactive	inactive	inactive	inactive	inactive	13 mm	9 mm	10 mm	7 mm								diameter of the inhibition zone (DIZ) [6]: inactive; diameter of the inhibition zone (DIZ) [8]: inactive; diameter of the inhibition zone (DIZ) [11]: inactive; diameter of the inhibition zone (DIZ) [16]: inactive; diameter of the inhibition zone (DIZ) [17]: inactive
O=C(NS(=O)(=O)/C=C/c1ccccc1)c1cccs1				inactive						23 mm	19 mm	21 mm	18 mm	15 mm	8 mm	11 mm	15 mm	18 mm	17 mm	13 mm	zone of inhibition at 75 µg/disc [2]: 9 mm; zone of inhibition at 100 µg/disc [10]: 10 mm; zone of inhibition at 50 µg/disc [12]: 10 mm; zone of inhibition at 75 µg/disc [13]: 16 mm; zone of inhibition at 50 µg/disc [15]: 12 mm; zone of inhibition at 50 µg/disc [18]: 7 mm
O=C(NS(=O)(=O)C1C(c2ccccc2)=NN(c2ccccc2)C1c1ccc([N+](=O)[O-])cc1)c1cccs1 (stereo not given)		inactive		inactive	inactive	inactive	inactive	inactive	inactive	17 mm	13 mm	14 mm	12 mm	15 mm	9 mm	12 mm	9 mm	11 mm	9 mm	12 mm	
Cc1ccc(-c2onc(-c3ccccc3)c2S(=O)(=O)NC(=O)c2ccc(Cl)s2)cc1										25 mm	24 mm	23 mm	21 mm	26 mm	16 mm	18 mm	17 mm	22 mm	19 mm	21 mm	zone of inhibition at 75 µg/disc [2]: 10 mm; zone of inhibition at 50 µg/disc ([9]; read-out: DIZ): 14 mm; zone of inhibition at 100 µg/disc [10]: 14 mm; zone of inhibition at 50 µg/disc [12]: 18 mm; zone of inhibition at 75 µg/disc [13]: 17 mm; zone of inhibition at 50 µg/disc [15]: 13 mm; zone of inhibition at 50 µg/disc [18]: 8 mm
